# Experimental data published in US4479951A, “1.4;3.6-Dianhydrohexitol nitrates substituted by purine bases, processes for their preparation and pharmaceutical compositions” (Dr. Willmar Schwabe GmbH & Co., priority 1980, dated 1984).
# System: mongrel dogs
# Assay: circulatory-pharmacological effectiveness on the narcotised dog, intravenous administration
# Type: in vivo
compound,measurement,setting,value
"Nc1ncnc2c1ncn2[C@H]1CO[C@H]2[C@@H]1OC[C@@H]2O[N+](=O)[O-] [1c/2c, 5-(9-Adenyl)-5-desoxy-1.4;3.6-dianhydro-L-iditol 2-nitrate]",APdiast: diastolic aorta pressure,40 min after i.v. 1 mg/kg,81.0 mm.Hg
same,APsyst: systolic aorta pressure,40 min after i.v. 1 mg/kg,126.6 mm.Hg
same,"BFFem: blood flow in the A. femoralis, referred to 20 kg. body weight",40 min after i.v. 1 mg/kg,46.3 mL/min
same,HF: heart frequency,40 min after i.v. 1 mg/kg,120.7 min⁻¹
same,"HLL: heart capacity left, referred to 20 kg. body weight",40 min after i.v. 1 mg/kg,0.76 W
same,"HLR: heart capacity right, referred to 20 kg. body weight",40 min after i.v. 1 mg/kg,89.3 mW
same,"HZV: heart minute volume, referred to 20 kg. body weight",40 min after i.v. 1 mg/kg,3.72 L/min
same,LVEDP: end diastolic pressure in the left ventricle,40 min after i.v. 1 mg/kg,4.41 mm.Hg
same,PAP: average pressure in the A. pulmonalis,40 min after i.v. 1 mg/kg,14.1 ±1.8 mm.Hg
same,PRA: pressure in the right atrium,40 min after i.v. 1 mg/kg,3.37 mm.Hg
same,"SV: beat volume, referred to 20 kg. body weight",40 min after i.v. 1 mg/kg,32.7 mL
same,"WAP: pulmonalis resistance, referred to 20 kg. body weight",40 min after i.v. 1 mg/kg,0.35 U
same,"WFem: femoralis resistance, referred to 20 kg. body weight",40 min after i.v. 1 mg/kg,0.27 KU
same,"WTP: total peripheral resistance, referred to 20 kg. body weight",40 min after i.v. 1 mg/kg,3.34 U
same,dp/dt: rate of pressure increase in the left ventricle,40 min after i.v. 1 mg/kg,2137.5 mm.Hg/sec.
same,APdiast: diastolic aorta pressure,50 min after i.v. 1 mg/kg,83.4 mm.Hg
same,APsyst: systolic aorta pressure,50 min after i.v. 1 mg/kg,131.2 mm.Hg
same,"BFFem: blood flow in the A. femoralis, referred to 20 kg. body weight",50 min after i.v. 1 mg/kg,50.6 mL/min
same,HF: heart frequency,50 min after i.v. 1 mg/kg,118.7 min⁻¹
same,"HLL: heart capacity left, referred to 20 kg. body weight",50 min after i.v. 1 mg/kg,0.75 W
same,"HLR: heart capacity right, referred to 20 kg. body weight",50 min after i.v. 1 mg/kg,83.6 mW
same,"HZV: heart minute volume, referred to 20 kg. body weight",50 min after i.v. 1 mg/kg,3.55 L/min
same,LVEDP: end diastolic pressure in the left ventricle,50 min after i.v. 1 mg/kg,4.69 mm.Hg
same,PAP: average pressure in the A. pulmonalis,50 min after i.v. 1 mg/kg,13.9 ±1.9 mm.Hg
same,PRA: pressure in the right atrium,50 min after i.v. 1 mg/kg,3.43 mm.Hg
same,"SV: beat volume, referred to 20 kg. body weight",50 min after i.v. 1 mg/kg,32.0 mL
same,"WAP: pulmonalis resistance, referred to 20 kg. body weight",50 min after i.v. 1 mg/kg,0.34 U
same,"WFem: femoralis resistance, referred to 20 kg. body weight",50 min after i.v. 1 mg/kg,0.26 KU
same,"WTP: total peripheral resistance, referred to 20 kg. body weight",50 min after i.v. 1 mg/kg,3.61 U
same,dp/dt: rate of pressure increase in the left ventricle,50 min after i.v. 1 mg/kg,2118.5 mm.Hg/sec.
same,APdiast: diastolic aorta pressure,60 min after i.v. 1 mg/kg,87.6 mm.Hg
same,APsyst: systolic aorta pressure,60 min after i.v. 1 mg/kg,133.1 mm.Hg
same,"BFFem: blood flow in the A. femoralis, referred to 20 kg. body weight",60 min after i.v. 1 mg/kg,50.4 mL/min
same,HF: heart frequency,60 min after i.v. 1 mg/kg,114.2 min⁻¹
same,"HLL: heart capacity left, referred to 20 kg. body weight",60 min after i.v. 1 mg/kg,0.79 W
same,"HLR: heart capacity right, referred to 20 kg. body weight",60 min after i.v. 1 mg/kg,89.5 mW
same,"HZV: heart minute volume, referred to 20 kg. body weight",60 min after i.v. 1 mg/kg,3.73 L/min
same,LVEDP: end diastolic pressure in the left ventricle,60 min after i.v. 1 mg/kg,4.78 mm.Hg
same,PAP: average pressure in the A. pulmonalis,60 min after i.v. 1 mg/kg,14.1 ±2.0 mm.Hg
same,PRA: pressure in the right atrium,60 min after i.v. 1 mg/kg,3.37 mm.Hg
same,"SV: beat volume, referred to 20 kg. body weight",60 min after i.v. 1 mg/kg,35.6 mL
same,"WAP: pulmonalis resistance, referred to 20 kg. body weight",60 min after i.v. 1 mg/kg,0.33 U
same,"WFem: femoralis resistance, referred to 20 kg. body weight",60 min after i.v. 1 mg/kg,0.26 KU
same,"WTP: total peripheral resistance, referred to 20 kg. body weight",60 min after i.v. 1 mg/kg,3.46 U
same,dp/dt: rate of pressure increase in the left ventricle,60 min after i.v. 1 mg/kg,2118.5 mm.Hg/sec.
same,APdiast: diastolic aorta pressure,90 min after i.v. 1 mg/kg,87.6 mm.Hg
same,APsyst: systolic aorta pressure,90 min after i.v. 1 mg/kg,136.9 mm.Hg
same,"BFFem: blood flow in the A. femoralis, referred to 20 kg. body weight",90 min after i.v. 1 mg/kg,50.8 mL/min
same,HF: heart frequency,90 min after i.v. 1 mg/kg,107.5 min⁻¹
same,"HLL: heart capacity left, referred to 20 kg. body weight",90 min after i.v. 1 mg/kg,0.82 W
same,"HLR: heart capacity right, referred to 20 kg. body weight",90 min after i.v. 1 mg/kg,91.5 mW
same,"HZV: heart minute volume, referred to 20 kg. body weight",90 min after i.v. 1 mg/kg,3.77 L/min
same,LVEDP: end diastolic pressure in the left ventricle,90 min after i.v. 1 mg/kg,5.25 mm.Hg
same,PAP: average pressure in the A. pulmonalis,90 min after i.v. 1 mg/kg,14.5 ±2.1 mm.Hg
same,PRA: pressure in the right atrium,90 min after i.v. 1 mg/kg,3.85 mm.Hg
same,"SV: beat volume, referred to 20 kg. body weight",90 min after i.v. 1 mg/kg,37.1 mL
same,"WAP: pulmonalis resistance, referred to 20 kg. body weight",90 min after i.v. 1 mg/kg,0.32 U
same,"WFem: femoralis resistance, referred to 20 kg. body weight",90 min after i.v. 1 mg/kg,0.27 KU
same,"WTP: total peripheral resistance, referred to 20 kg. body weight",90 min after i.v. 1 mg/kg,3.59 U
same,dp/dt: rate of pressure increase in the left ventricle,90 min after i.v. 1 mg/kg,2081.2 mm.Hg/sec.
same,APdiast: diastolic aorta pressure,120 min after i.v. 1 mg/kg,93.7 mm.Hg
same,APsyst: systolic aorta pressure,120 min after i.v. 1 mg/kg,143.4 mm.Hg
same,"BFFem: blood flow in the A. femoralis, referred to 20 kg. body weight",120 min after i.v. 1 mg/kg,58.6 mL/min
same,HF: heart frequency,120 min after i.v. 1 mg/kg,98.7 min⁻¹
same,"HLL: heart capacity left, referred to 20 kg. body weight",120 min after i.v. 1 mg/kg,0.89 W
same,"HLR: heart capacity right, referred to 20 kg. body weight",120 min after i.v. 1 mg/kg,98.7 mW
same,"HZV: heart minute volume, referred to 20 kg. body weight",120 min after i.v. 1 mg/kg,3.85 L/min
same,LVEDP: end diastolic pressure in the left ventricle,120 min after i.v. 1 mg/kg,6.37 mm.Hg
same,PAP: average pressure in the A. pulmonalis,120 min after i.v. 1 mg/kg,15.1 ±2.3 mm.Hg
same,PRA: pressure in the right atrium,120 min after i.v. 1 mg/kg,3.94 mm.Hg
same,"SV: beat volume, referred to 20 kg. body weight",120 min after i.v. 1 mg/kg,40.0 mL
same,"WAP: pulmonalis resistance, referred to 20 kg. body weight",120 min after i.v. 1 mg/kg,0.30 U
same,"WFem: femoralis resistance, referred to 20 kg. body weight",120 min after i.v. 1 mg/kg,0.25 KU
same,"WTP: total peripheral resistance, referred to 20 kg. body weight",120 min after i.v. 1 mg/kg,3.72 U
same,dp/dt: rate of pressure increase in the left ventricle,120 min after i.v. 1 mg/kg,2043.7 mm.Hg/sec.
same,APdiast: diastolic aorta pressure,150 min after i.v. 1 mg/kg,94.7 mm.Hg
same,APsyst: systolic aorta pressure,150 min after i.v. 1 mg/kg,147.2 mm.Hg
same,"BFFem: blood flow in the A. femoralis, referred to 20 kg. body weight",150 min after i.v. 1 mg/kg,58.2 mL/min
same,HF: heart frequency,150 min after i.v. 1 mg/kg,97.5 min⁻¹
same,"HLL: heart capacity left, referred to 20 kg. body weight",150 min after i.v. 1 mg/kg,0.91 W
same,"HLR: heart capacity right, referred to 20 kg. body weight",150 min after i.v. 1 mg/kg,98.0 mW
same,"HZV: heart minute volume, referred to 20 kg. body weight",150 min after i.v. 1 mg/kg,3.89 L/min
same,LVEDP: end diastolic pressure in the left ventricle,150 min after i.v. 1 mg/kg,6.97 mm.Hg
same,PAP: average pressure in the A. pulmonalis,150 min after i.v. 1 mg/kg,15.1 ±1.5 mm.Hg
same,PRA: pressure in the right atrium,150 min after i.v. 1 mg/kg,4.03 mm.Hg
same,"SV: beat volume, referred to 20 kg. body weight",150 min after i.v. 1 mg/kg,41.0 mL
same,"WAP: pulmonalis resistance, referred to 20 kg. body weight",150 min after i.v. 1 mg/kg,0.27 U
same,"WFem: femoralis resistance, referred to 20 kg. body weight",150 min after i.v. 1 mg/kg,0.26 KU
same,"WTP: total peripheral resistance, referred to 20 kg. body weight",150 min after i.v. 1 mg/kg,3.73 U
same,dp/dt: rate of pressure increase in the left ventricle,150 min after i.v. 1 mg/kg,1950.0 mm.Hg/sec.
same,APdiast: diastolic aorta pressure,180 min after i.v. 1 mg/kg,91.9 mm.Hg
same,APsyst: systolic aorta pressure,180 min after i.v. 1 mg/kg,143.4 mm.Hg
same,"BFFem: blood flow in the A. femoralis, referred to 20 kg. body weight",180 min after i.v. 1 mg/kg,59.4 mL/min
same,HF: heart frequency,180 min after i.v. 1 mg/kg,95.5 min⁻¹
same,"HLL: heart capacity left, referred to 20 kg. body weight",180 min after i.v. 1 mg/kg,0.91 W
same,"HLR: heart capacity right, referred to 20 kg. body weight",180 min after i.v. 1 mg/kg,98.5 mW
same,"HZV: heart minute volume, referred to 20 kg. body weight",180 min after i.v. 1 mg/kg,4.03 L/min
same,LVEDP: end diastolic pressure in the left ventricle,180 min after i.v. 1 mg/kg,7.69 mm.Hg
same,PAP: average pressure in the A. pulmonalis,180 min after i.v. 1 mg/kg,14.9 ±1.3 mm.Hg
same,PRA: pressure in the right atrium,180 min after i.v. 1 mg/kg,4.12 mm.Hg
same,"SV: beat volume, referred to 20 kg. body weight",180 min after i.v. 1 mg/kg,42.6 mL
same,"WAP: pulmonalis resistance, referred to 20 kg. body weight",180 min after i.v. 1 mg/kg,0.24 U
same,"WFem: femoralis resistance, referred to 20 kg. body weight",180 min after i.v. 1 mg/kg,0.24 KU
same,"WTP: total peripheral resistance, referred to 20 kg. body weight",180 min after i.v. 1 mg/kg,3.51 U
same,dp/dt: rate of pressure increase in the left ventricle,180 min after i.v. 1 mg/kg,1593.7 mm.Hg/sec.
same,APdiast: diastolic aorta pressure,before i.v. 1 mg/kg (v),88.1 mm.Hg
same,APsyst: systolic aorta pressure,before i.v. 1 mg/kg (v),150.9 mm.Hg
same,"BFFem: blood flow in the A. femoralis, referred to 20 kg. body weight",before i.v. 1 mg/kg (v),53.4 mL/min
same,HF: heart frequency,before i.v. 1 mg/kg (v),97.5 min⁻¹
same,"HLL: heart capacity left, referred to 20 kg. body weight",before i.v. 1 mg/kg (v),0.83 W
same,"HLR: heart capacity right, referred to 20 kg. body weight",before i.v. 1 mg/kg (v),96.0 mW
same,"HZV: heart minute volume, referred to 20 kg. body weight",before i.v. 1 mg/kg (v),3.61 L/min
same,LVEDP: end diastolic pressure in the left ventricle,before i.v. 1 mg/kg (v),5.53 mm.Hg
same,PAP: average pressure in the A. pulmonalis,before i.v. 1 mg/kg (v),15.8 ±1.4 mm.Hg
same,PRA: pressure in the right atrium,before i.v. 1 mg/kg (v),3.94 mm.Hg
same,"SV: beat volume, referred to 20 kg. body weight",before i.v. 1 mg/kg (v),38.3 mL
same,"WAP: pulmonalis resistance, referred to 20 kg. body weight",before i.v. 1 mg/kg (v),0.38 U
same,"WFem: femoralis resistance, referred to 20 kg. body weight",before i.v. 1 mg/kg (v),0.28 KU
same,"WTP: total peripheral resistance, referred to 20 kg. body weight",before i.v. 1 mg/kg (v),3.94 U
same,dp/dt: rate of pressure increase in the left ventricle,before i.v. 1 mg/kg (v),2081.2 mm.Hg/sec.
